In one data set the test system is SK-CO-1 cells. Description: SK-CO-1 CTG proliferation assay (120 h). It is filed as cell-based. The settings on record: Homo sapiens, CRC, G12V. As to the method:
(§1) SK-CO-1 cells (ATCC HTB-39) are dispensed into 384-well plates, flat and clear bottom (Greiner, PNr. 781091) at a density of 500 cells per well in 60 μL EMEM (Sigma M5650)+10% Fetal Calf Serum (HyClone, PNr.: SH30084.03) and incubated at 37° C. in a CO2 incubator overnight. The next day, compounds (10 mM stock in DMSO) are added with the ECHO acoustic liquid handler system (Beckman Coulter), including DMSO controls. Plates are incubated for 120 h, and cell viability is measured using CellTiter-Glo luminescent cell viability reagent (Promega product code G7570). Viability (stated as percent of control) is defined as relative luminescence units RLU of each well divided by the RLU of cells in DMSO controls. IC50 values are determined from viability measurements by non-linear regression using a four-parameter model.

Another data set can be described thus: Caco-2 assay. It is filed as in vitro ADME. The settings on record: human; for Papp A→B at 90 min, 10 μM: Caco-2, pH 7.4, apical to basolateral, read-out: Caco PappAB; for efflux ratio at 90 min, 10 μM: Caco-2, pH 7.4, efflux ratio PappBA/PappAB, read-out: Caco ER. As to the method: The assay provides information on the potential of a compound to pass the cell membrane, on the extent of oral absorption as well as on whether the compound is actively transported by uptake and/or efflux transporters. Permeability measurements across polarized, confluent Caco-2 cell monolayers grown on permeable filter supports (Corning, catalog #3391) are used. […] The receiver and donor compartments contain 0.25% bovine serum albumine (BSA) in assay buffer. […] After a pre-incubation of 25-30 min at 37° C., at predefined time points (0, 30, 60 and 90 min), samples were taken from the receiver and donor compartment, respectively. Concentrations of test compounds in samples were measured by HPLC/MS/MS, samples from the donor compartment were diluted 1:50 (v:v) with assay buffer, samples from receiver compartment were measured without dilution.
Apparent permeabilities in a-b (PappAB) and b-a (PappBA) directions are calculated according to the formula:
[formula] • Vrec [mL]: buffer volume in receiver compartment • Cdon [μmol/mL]: concentration of test compound in donor compartment at t=0 • ΔCrec: difference between concentrations of test compound in receiver compartment at start and end of incubation time • Δt: Incubation time • Vrec·ΔCrec/Δt [μmol/min]: Amount of compound transferred to receiver compartment per time • A [cm^2]: filter surface
Caco-2 efflux ratios (ER) are calculated as the ratio of PappBA/PappAB.
In general terms: Passage across Caco-2 layers is used to estimate intestinal permeability.

The nature of data set [1]: Metabolic (microsomal) stability assay, HLM. The settings on record: human liver microsomes, 1 μM, predicted clearance as percent of liver blood flow. It is filed as in vitro ADME. The method, then:
The metabolic degradation of the test compound is assayed at 37° C. with pooled liver microsomes (mouse (MLM), rat (RLM) or human (HLM)). The final incubation volume of 48 μL per time point contains TRIS buffer (pH 7.5; 0.1 M), magnesium chloride (6.5 mM), microsomal protein (0.5 mg/mL for mouse/rat, 1 mg/mL for human specimens) and the test compound at a final concentration of 1 μM. Following a short preincubation period at 37° C., the reactions are initiated by addition of 12 μL beta-nicotinamide adenine dinucleotide phosphate, reduced form (NADPH, 10 mM) and terminated by transferring an aliquot into solvent after different time points (0, 5, 15, 30, 60 min). Additionally, the NADPH-independent degradation is monitored in incubations without NADPH, terminated at the last time point by addition of acetonitrile. The quenched incubations are pelleted by centrifugation (4,000 rpm, 15 min). An aliquot of the supernatant is assayed by LC-MS/MS to quantify the concentration of parent compound in the individual samples.
In vitro intrinsic clearance (CLint, in vitro) is calculated from the time course of the disappearance of the test drug during the microsomal incubation. Each plot is fitted to the first-order elimination rate constant as C(t)=C0*exp(−ke*t), where C(t) and C0 are the concentration of unchanged test drug at incubation time t and that at preincubation and ke is the disappearance rate constant of the unchanged drug. Subsequently, CLint, in vitro (μL min^−1·amount protein) values are converted to predicted CLint, in vivo (mL min^−1·kg^−1) from incubation parameters according to the equation CLint, in vivo=CLint, in vitro×(incubation volume (ml)/amount protein (mg))×(amount protein (mg)/g liver tissue)×(liver weight/body wt.). For better across species comparison the predicted clearance is expressed as percent of the liver blood flow [% QH](mL min^−1·kg^−1) in the individual species. In general, high stability (corresponding to low % QH) of the compounds across species is desired.

In another data set the test system is NCI-H358 cells. Description: NCI-H358 CTG proliferation assay (120 h), assay 2. The data set is classed as cell-based. The settings on record: Homo sapiens, 384-well, 200 cells per well. As to the method: NCI-H358 cells (ATCC No. CRL-5807) are dispensed into white bottom opaque 96 well plates (Perkin Elmer cat no. 5680) at a density of 2000 cells per well in 100 μL RPMI-1640 ATCC-Formulation (Gibco #A10491)+10% FCS (fetal calf serum) (assay 1) or into black 384-well plates, flat and clear bottom (Greiner, PNr. 781091) at a density of 200 cells per well in 60 μl RPMI-1640 ATCC-Formulation (Gibco #A10491)+10% FCS (fetal calf serum) (assay 2). […] Compounds (10 mM stock in DMSO) are added at logarithmic dose series using the HP Digital Dispenser D300 (Tecan) (assay 1) or the ECHO acoustic liquid handler system (Beckman Coulter) (assay 2), normalizing for added DMSO and including DMSO controls. For the T0 time point measurement, untreated cells are analyzed at the time of compound addition. Plates are incubated for 120 h, and cell viability is measured using CellTiter-Glo luminescent cell viability reagent (Promega product code G7570). Viability (stated as percent of control) is defined as relative luminescence units RLU of each well divided by the RLU of cells in DMSO controls. IC50 values are determined from viability measurements by non-linear regression using a four-parameter model.

For another data set, the system named is SAS cells. Description: SAS CTG proliferation assay (120 h). The data set is classed as cell-based. The settings on record: HNSCC, wt amplified. As to the method:
as §1, with “SAS” for “SK-CO-1”, “(JCRB0260)” for “(ATCC HTB-39)”, “300” for “500”, “DMEM:F12 (Gibco 31330-038)+10%” for “EMEM (Sigma M5650)+10%”

Here are results for eleven molecules from patent US20250313553A1, “ANNULATED 2-AMINO-3-CYANO THIOPHENES AND DERIVATIVES FOR THE TREATMENT OF CANCER” (Boehringer Ingelheim Int'l GmbH Corp., priority 2021, published 2025).

For the molecule `C[C@H]1CN(C)CCN1c1cccc(-c2noc([C@@]3(C)CCCc4sc(N)c(C#N)c43)n2)n1` [Example V-1], the IC50 – broadly, the concentration at which inhibition is half-maximal – in the data set with SK-CO-1 cells worked out at 4.8 µM; in the data set with NCI-H358 cells it was 937 nM; with SAS cells it was 8.02 µM. Further, in the data set “Caco-2 assay”, the Papp A→B at 90 min, 10 μM was determined as 25.6 ×10⁻⁶ cm/s. In “Caco-2 assay”, the efflux ratio at 90 min, 10 μM is 0.7. The “HLM QH” value in data set [1] is 93%.
On to `COCCCN1CCCN(c2nccc(-c3noc([C@@]4(C)CCCc5sc(N)c(C#N)c54)n3)n2)[C@@H](C)C1` [Example V-2], for which, in “Caco-2 assay”, the Papp A→B at 90 min, 10 μM was 26.4 ×10⁻⁶ cm/s and the efflux ratio at 90 min, 10 μM was determined as 1.5. Moreover, the “HLM QH” value in data set [1] is on record as over 95%.
`C[C@H]1CNCCN1c1nccc(-c2noc([C@@]3(C)CCCc4sc(N)c(C#N)c43)n2)n1` [Example V-4]: in the data set “Caco-2 assay”, the Papp A→B at 90 min, 10 μM came out at 5 ×10⁻⁶ cm/s and the efflux ratio at 90 min, 10 μM amounted to 9.8. Also, the “HLM QH” value in data set [1] is listed as 83%.
For the molecule `C[C@H]1CN(C)CCCN1c1nccc(-c2noc([C@@]3(C)CCCc4sc(N)c(C#N)c43)n2)n1` [Example V-5], in “Caco-2 assay”, the Papp A→B at 90 min, 10 μM was found to be 21.4 ×10⁻⁶ cm/s and the efflux ratio at 90 min, 10 μM amounted to 1.7. Further, the “HLM QH” value in data set [1] is on record as 94%.
In the case of `C[C@H]1CNCCCN1c1nccc(-c2noc([C@@]3(C)CCCc4sc(N)c(C#N)c43)n2)n1` [Example V-6], in “Caco-2 assay”, the Papp A→B at 90 min, 10 μM turned out to be 1.2 ×10⁻⁶ cm/s and the efflux ratio at 90 min, 10 μM came out at 19. The “HLM QH” value in data set [1] was 77%.
In the case of `C[C@H]1CN(C)CCN1c1nccc(-c2noc([C@@]3(C)CCCc4sc(N)c(C#N)c43)n2)n1` [Example V-7], in the data set “Caco-2 assay”, the Papp A→B at 90 min, 10 μM worked out at 32.2 ×10⁻⁶ cm/s and the efflux ratio at 90 min, 10 μM was 0.7. Further, in data set [1], the “HLM QH” value is on record as 95%.
`C[C@H](Oc1cccc(-c2noc([C@@]3(C)CCCc4sc(N)c(C#N)c43)n2)n1)[C@@H]1CCCN1C` [Example V-8]: the figures for the IC50 with SK-CO-1 cells, with NCI-H358 cells and with SAS cells were 6.65 µM, 230 nM and 3.1 µM, respectively. Moreover, the Papp A→B at 90 min, 10 μM in “Caco-2 assay” worked out at 20.9 ×10⁻⁶ cm/s. Moreover, the efflux ratio at 90 min, 10 μM in the data set “Caco-2 assay” was 1.3. For the same molecule, the “HLM QH” value in data set [1] is recorded as over 88%.
On to `CC(C)N1CCCN(c2nccc(-c3noc([C@@]4(C)CCCc5sc(N)c(C#N)c54)n3)n2)[C@@H](C)C1` [Example V-9], for which, in the data set “Caco-2 assay”, the Papp A→B at 90 min, 10 μM was determined as 27 ×10⁻⁶ cm/s and the efflux ratio at 90 min, 10 μM worked out at 0.9. Further, the “HLM QH” value in data set [1] is over 88%. Further, in the data set on NCI-H358 cells, the midpoint of inhibition, the IC50, lay at 1190 nM.
For `C[C@H](Oc1nccc(-c2noc([C@@]3(C)CCCc4sc(N)c(C#N)c43)n2)n1)[C@@H]1CCCN1C` [Example V-10], in “Caco-2 assay”, the Papp A→B at 90 min, 10 μM was 11.3 ×10⁻⁶ cm/s and the efflux ratio at 90 min, 10 μM came to 3.2. The “HLM QH” value in data set [1] is 87%.
With `C[C@H](Oc1ccnc(-c2noc([C@@]3(C)CCCc4sc(N)c(C#N)c43)n2)n1)[C@@H]1CCCN1C` [Example V-11], the figures for the IC50 in the data set with SK-CO-1 cells, in the data set with NCI-H358 cells and with SAS cells were 0.737 µM, 244 nM and 3.33 µM, respectively. Besides, the Papp A→B at 90 min, 10 μM in “Caco-2 assay” stood at 13 ×10⁻⁶ cm/s. In addition, in data set [1], the “HLM QH” value is 81%.
As for `C[C@H]1CN(C)CCN1c1nccc(-c2cc([C@@]3(C)CCCc4sc(N)c(C#N)c43)on2)n1` [Example V-27], in the data set “Caco-2 assay”, the Papp A→B at 90 min, 10 μM came out at 14 ×10⁻⁶ cm/s and the efflux ratio at 90 min, 10 μM came to 0.5. Also, the “HLM QH” value in data set [1] is reported as over 88%.
